“Also recorded” adds a separate entry of the source.
Columns and labels:
[1] = system: primary small airway epithelial (SAE) cells; assay: SAE cell proliferation, DNA synthesis by [3H]-thymidine uptake; assay type: cell-based, human; conditions: uPA between 5 and 20 nM; bleomycin 40 μg/ml as positive control
Description: FIGS. 2A-2B is a set of graphs showing dose-dependent induction of primary small airway epithelial (SAE) cell apoptosis and proliferation by uPA. FIG. 2A, SAE cells were treated for 48 h with 0-20 nM uPA at 37° C. Apoptotic cells were analyzed by flow cytometry using anti-annexin-V antibody and propidium iodide (PI). Bleo (40 μg/ml) was used as positive control (90). FIG. 2B, The cells were next treated with uPA as described in FIG. 1A and DNA synthesis was determined by [^3H]-thymidine uptake as described (5).

uPAR = assay: Western blot of bleo-treated Beas2B cells: uPAR; assay type: cell-based, human; conditions: 40 μg/ml bleo, 28 h
Description: (§1) FIG. 4 depicts a set of Western blots showing the show the effect of bleo on uPA, uPAR, PAI-1 and p53 expression in LEC in vitro.
(§2) Beas2B cells were treated for 28 h with PBS or 40 μg/ml of bleo in the presence or absence of uPA or its ATF (20 nM), anti-β1-integrin monoclonal antibody (B1), (which activates β1-integrin by clustering), mouse IgG (mIgG), uPA+B1, uPA+mIgG, PP-1 (10 nM), or scrambled control peptide CP-1 (10 nM) at 37° C. In the case of uPA and PAI-1, the full length uPA was substituted with ATF, because uPA-mediated autoinduction or induction of PAI-1 occurs via the interaction of the ATF with uPAR (3-4). […] The membrane proteins were subjected to Western blotting using anti-uPAR antibody.

PAI-1 = assay: Western blot of bleo-treated Beas2B cells: PAI-1; assay type: cell-based, human; conditions: 40 μg/ml bleo, 28 h
Description: as §1, §2

p53 = assay: Western blot of bleo-treated Beas2B cells: p53; assay type: cell-based, human; conditions: 40 μg/ml bleo, 28 h
Description: as §1, §2

uPA = assay: Western blot of bleo-treated Beas2B cells: uPA; assay type: cell-based, human; conditions: 40 μg/ml bleo, 28 h
Description: as §1, §2

Beas2B cells = assay: Bleo-induced apoptosis of Beas2B cells, flow cytometry (anti-Annexin-V antibody and propidium iodide); assay type: cell-based, human; conditions: 28 h, 40 μg/ml bleo, uPA 20 nM, anti-β1-integrin antibody 1 μg/ml, PP-1 10 nM
Description: FIG. 6 is a graph showing apoptosis (% apoptotic cells) after treatment of cells with a β1-integrin activator (anti-β1-integrin antibody), uPA, a combination of the antibody and uPA, or PP-1, along with appropriate controls. Beas2B cells were treated for 28 h with PBS or 40 μg/ml of Bleo in the presence or absence of uPA (20 nM) or PBS as control, with anti-β1-integrin antibody (1 μg/ml, B1), or mouse IgG (mIgG) as control, a combination of the antibody (or control antibody with uPA, and with PP-1 peptide (10 nM) or the CP-1 control peptide (10 nM) as described above at 37° C. Cells were harvested after trypsinization and LEC apoptosis was determined by flow cytometry after exposing the cells to anti-Annexin-V antibody and propidium iodide (as described for FIG. 2A).
Expression of p53 and PAI-1 shown in Example I were correlated with LEC apoptosis induced by bleo (FIG. 6). […] Beas2B cells were treated for 28 h with PBS or 40 μg/ml of bleo (Bleo) with uPA (20 nM), and/or anti-β1-integrin antibody (1 μg/ml, B1), control mouse IgG (mIgG) PP-1 peptide (10 nM) or CP-1 control peptide (10 nM) as described above at 37° C. Cells were trypsinized and LEC apoptosis was determined by flow cytometry after exposing the cells to anti-Annexin-V antibody and propidium iodide (as described for FIG. 2A).

[2] = system: bleo-induced DNA fragmentation; assay: DNA fragmentation of genomic DNA from mouse lung extracts; assay type: in vivo; conditions: i.p. 0.1 ml osmotic minipump, 10 mM peptide, one day after intranasal bleo; lungs after 16 days
Description: Alternatively, PP-1 or CP-1 were administered in a continuous manner by i.p. implantation of an 0.1 ml osmotic minipump filled with PP-1 or CP-1 (10 mM or 2.92 mg/100 μl) one day after intranasal instillation of bleo. Lungs were harvested after 16 days. Total dose administered over that period was about 147 mg/kg. The apoptotic scores were calculated by counting the number of apoptotic cells in each field. Genomic DNA was isolated from saline, bleo, Bleo+PP-1 or Bleo+CP-1 mouse lung extracts, and subjected to DNA fragmentation.

## Bleomycin
[1]
  cell proliferation of SAE cells: inhibited cell proliferation
uPAR
  uPAR expression: suppressing
PAI-1
  PAI-1 expression: induced
p53
  p53 expression: induced
uPA
  uPA expression: suppressing

## DGIWKASFTTFTVTKYWFYR [PP-1, residues 82-101 of human Cav-1, the caveolin-1 scaffolding domain]
Beas2B cells
  protection of LECs from bleo-induced apoptosis: protected LECs from bleo-induced apoptosis; also recorded: more potent in protecting LECs than was uPA or anti-β1-integrin antibody
[2]
  bleo-induced DNA fragmentation: protect against bleo-induced LEC apoptosis and DNA fragmentation

From US8697840B2, “Peptide inhibition of lung epithelial apoptosis and pulmonary fibrosis” (Board of Regents, The University of Texas System, priority 2008, dated 2014)
